{"source": "patent US10780067B2", "about": "“Endoxifen for local transdermal therapy to the breast” (Northwestern University, priority 2016, dated 2020)", "format_in_all_cases": "in vivo, human", "key": {"[1]": {"experiment": "Plasma, breast adipose tissue and NAF concentrations of tamoxifen and its metabolites (LC-MS/MS), presurgical trial", "excerpt": "(§1) All participants provided informed consent. Baseline assessments included a history and physical, explanation of gel application, completion of the Breast Cancer Prevention Trial Eight Symptom Scale (BESS) questionnaire, collection of a venous blood sample, and collection of nipple aspirate fluid (NAF) from NAF yielders. […] Treatment began within 5 days post-randomization and ended on the day prior to surgical resection. Participants were instructed to apply the gel to the entire skin envelope of each breast each morning, after a shower. Duration of therapy was 6-10 weeks. Compliance was assessed through participant diaries, counts of returned pills and of returned gel canisters. Participants who took at least 80% of the prescribed dose were considered compliant.\nAssessments similar to those performed at baseline were repeated on the day prior to, or on the morning of surgery. During surgery, breast adipose tissue from the surgical sample was snap frozen and stored at −80° C. for measurement of tamoxifen and metabolites. The samples were obtained from a location adjacent to the DCIS lesion to provide uniformity between participants undergoing breast conservation and mastectomy. The paraffin block of the core and excision samples were acquired by the recruiting institution and 10 sections from each specimen were submitted to the NU Pathology Core Facility. The sections were cut in batches (with pre- and post-treatment samples in the same batch), shipped cold, and processed for immunohistochemistry within four weeks.\n(Z)-tamoxifen, (Z)-NDT, (E) and (Z)-4-OHT, and (Z)-endoxifen were measured by liquid chromatography-tandem mass spectrometry with a turbo ion spray interface operating in positive mode (API 3000; AB SCIEX, Foster City, Calif.). […] For analysis of NAF, samples were collected in a capillary tube and diluted with 200 μL of phosphate buffered saline; 100 μL of the diluted NAF sample was used for analysis. Breast adipose tissue samples, 25 mg, were minced and treated with 125 μL of […] and extracted as described above.\nRetention times for (Z)-tamoxifen, (Z)-NDT, (Z)-4-OHT, (E)-4-OHT and (Z)-endoxifen were 7.3, 6.8, 5.1, 4.7 and 4.5 min, respectively. […] In three participants, matched samples were not available: breast adipose tissue was not collected in two, and the plasma sample was missing in one.\nSince the fraction of E and Z isoforms of 4-OHT was of particular interest, we used an additional validated method to study plasma concentrations of these metabolites in a different laboratory (Eurofins Medinet, Chantilly, Va.): Plasma from blood samples collected in lithium-heparin tubes was frozen at −20° C., shipped in batches on dry ice to them Eurofins Medinet central laboratory; LC-MS/MS was used for the simultaneous determination of (E) 4-OHT and (Z) 4-OHT, with a lower limit of quantitation (LOQ) of 10 pg/mL and upper LOQ of 10,000 pg/mL. Eurofins Medinet developed and validated them method for BHR Pharma, in accordance with the FDA Guidance on Bioanalytical Method Validation."}, "factor VIII": {"tested_on": "factor VIII", "experiment": "Plasma factor VIII antigen ELISA, presurgical trial", "conditions": "mean ± SD", "method": "Plasma samples collected with anticoagulant K3-EDTA were used for human IGF-1 and SHBG assays, and coagulation protein assays (factor VIII, factor IX, von Willebrand factor, and protein S)[23]. The human IGF-1 and SHBG assays were performed with Quantikine Enzyme-linked immunosorbent assay (ELISA) Kits (R&D Systems, Cat # DG100 for IGF-1, and Cat # DSHBGO for SHBG assay). The lower limit of detection was 56 pg/ml, and 5 pmol/L; % CV values were 4.3 and 5.6 for IGF-1, and SHBG assay, respectively. Factor VIII, and factor IX were determined with VisuLize™ antigen ELISA kits (Affinity Biologicals Inc.). von Willebrand factor was measured with immune-turbidimetric assay (Diagnostica Stago Inc. Cat #00518) by STAR analyzer, and total protein S was assayed with an ELISA kit (REAADSR Inc.)"}, "[2]": {"experiment": "BESS quality of life questionnaire and CTCAE adverse events, presurgical trial", "excerpt": "as §1\nThe BESS Questionnaire was repeated at day 15 and at the end of treatment (1 day before surgery or day of surgery), and the post-surgical visit (approximately 7-14 days after surgery).\nFor continuous variables in the immunochemistry, drug concentration, and blood coagulation data, means and standard deviations are reported; the significance of changes between baseline and post-treatment within groups were evaluated with the paired t-test, and differences between treatment groups assessed using the unpaired t-test. For categorized demographic data, we examined the association of these variables with treatment group via Fisher's exact test. For the analysis of quality of life, the 33 symptoms in the BESS Questionnaire were divided into eight clusters as described by Cella et. al.. The mean score within each cluster was used to evaluate significance of changes from baseline to posttreatment within groups as well as the differences between treatment groups using the Wilcoxon signed-rank test."}, "[3]": {"conditions": "at surgery after 6-10 weeks, mean ± SD, LLOQ 3 ng/g"}}, "note": "Values joined by “and” are separate entries in the source; they are usually repeats but may differ in a detail not shown here. Equal entries are not always repeated.", "data": [{"smiles": "CC/C(=C(\\c1ccccc1)c1ccc(OCCN(C)C)cc1)c1ccccc1", "note": "[Tamoxifen, (Z)-tamoxifen]", "values": [{"measurement": "(E) 4-OHT concentration, plasma", "setting": "[1]; after 6-10 weeks, mean ± SD, LLOQ 1 ng/mL", "value": "BQL"}, {"measurement": "(Z) Tamoxifen concentration, plasma", "setting": "[1]; after 6-10 weeks, mean ± SD, LLOQ 20 ng/mL", "value": "90 ± 45", "unit": "ng/mL"}, {"measurement": "(E) 4-OHT concentration, breast adipose tissue", "setting": "[1]; [3]", "value": "BQL"}, {"measurement": "(Z) Tamoxifen concentration, breast adipose tissue", "setting": "[1]; [3]", "value": "2959 ± 1035", "unit": "ng/g"}, {"measurement": "plasma concentration of tamoxifen, individual participants", "setting": "[1]; participants A, B and one with undetectable NAF levels, listed as oral-T", "value": "54 ng/mL and 94.3 ng/mL and 160 ng/mL"}, {"measurement": "NAF concentration of endoxifen", "setting": "[1]; post-treatment nipple aspirate fluid", "value": "undetectable"}, {"measurement": "NAF concentration of tamoxifen, individual participants", "setting": "[1]; post-treatment nipple aspirate fluid, participants A, B, listed as oral-T", "value": "320 ng/mL and 182 ng/mL"}, {"measurement": "NAF concentration of 4-OHT ((Z) 4-OHT), individual participants", "setting": "[1]; post-treatment nipple aspirate fluid, participants C, D", "value": "undetectable"}, {"measurement": "% Factor VIII post-treatment", "setting": "factor VIII; plasma after 6-10 weeks", "value": "168.7 ± 51.6", "unit": "%"}, {"measurement": "% Factor VIII baseline", "setting": "factor VIII; plasma before treatment", "value": "157.1 ± 47.5", "unit": "%"}, {"measurement": "% Factor VIII Changes from baseline", "setting": "factor VIII; plasma", "value": "11.6 ± 17.3", "unit": "%"}, {"measurement": "BESS Vasomotor symptom cluster, baseline", "setting": "[2]; hot flashes, night sweats, cold sweats, mean score ± SD", "value": "0.33 ± 0.45"}, {"measurement": "BESS Bladder symptom cluster, Changes from baseline", "setting": "[2]; mean score ± SD", "value": "0.11 ± 0.49"}, {"measurement": "BESS Bladder symptom cluster, baseline", "setting": "[2]; mean score ± SD", "value": "0.14 ± 0.36"}, {"measurement": "BESS Bladder symptom cluster, post-treatment", "setting": "[2]; mean score ± SD", "value": "0.25 ± 0.33"}, {"measurement": "BESS Body Image symptom cluster, Changes from baseline", "setting": "[2]; mean score ± SD", "value": "−0.04 ± 0.87"}, {"measurement": "BESS Body Image symptom cluster, baseline", "setting": "[2]; mean score ± SD", "value": "0.68 ± 0.77"}, {"measurement": "BESS Body Image symptom cluster, post-treatment", "setting": "[2]; mean score ± SD", "value": "0.64 ± 0.89"}, {"measurement": "BESS Body pain symptom cluster, Changes from baseline", "setting": "[2]; mean score ± SD", "value": "0.43 ± 0.92"}, {"measurement": "BESS Body pain symptom cluster, baseline", "setting": "[2]; mean score ± SD", "value": "0.76 ± 1.12"}, {"measurement": "BESS Body pain symptom cluster, post-treatment", "setting": "[2]; mean score ± SD", "value": "1.19 ± 1.11"}, {"measurement": "BESS Cognitive symptom cluster, Changes from baseline", "setting": "[2]; mean score ± SD", "value": "0.10 ± 0.86"}, {"measurement": "BESS Cognitive symptom cluster, baseline", "setting": "[2]; mean score ± SD", "value": "0.62 ± 0.61"}, {"measurement": "BESS Cognitive symptom cluster, post-treatment", "setting": "[2]; mean score ± SD", "value": "0.71 ± 1.18"}, {"measurement": "BESS Gastrointestinal symptom cluster, Changes from baseline", "setting": "[2]; mean score ± SD", "value": "−0.10 ± 0.24"}, {"measurement": "BESS Gastrointestinal symptom cluster, baseline", "setting": "[2]; mean score ± SD", "value": "0.12 ± 0.31"}, {"measurement": "BESS Gastrointestinal symptom cluster, post-treatment", "setting": "[2]; mean score ± SD", "value": "0.02 ± 0.09"}, {"measurement": "BESS Sexual problems symptom cluster, Changes from baseline", "setting": "[2]; mean score ± SD", "value": "−0.21 ± 0.54"}, {"measurement": "BESS Sexual problems symptom cluster, baseline", "setting": "[2]; mean score ± SD", "value": "0.32 ± 0.72"}, {"measurement": "BESS Sexual problems symptom cluster, post-treatment", "setting": "[2]; mean score ± SD", "value": "0.11 ± 0.40"}, {"measurement": "BESS Vaginal symptom cluster, Changes from baseline", "setting": "[2]; mean score ± SD", "value": "0.07 ± 0.19"}, {"measurement": "BESS Vaginal symptom cluster, baseline", "setting": "[2]; mean score ± SD", "value": "0.00 ± 0.00"}, {"measurement": "BESS Vaginal symptom cluster, post-treatment", "setting": "[2]; mean score ± SD", "value": "0.07 ± 0.19"}, {"measurement": "BESS Vasomotor symptom cluster, Changes from baseline", "setting": "[2]; mean score ± SD", "value": "0.55 ± 1.05"}, {"measurement": "BESS Vasomotor symptom cluster, post-treatment", "setting": "[2]; mean score ± SD", "value": "0.88 ± 1.26"}, {"measurement": "BESS Vaginal symptom cluster, baseline", "setting": "[2]; mean score ± SD, listed as oral-T", "value": 0.00}, {"measurement": "serious adverse events (CTCAE)", "setting": "[2]; whole study", "value": "no serious adverse events"}]}]}
